Assay results from patent US4228187A, “Alkyl and cycloalkylthiophenylalkylaminoalkanols, their salts and the preparation thereof” (priority 1973, dated 1980).
Entries after “also recorded” stand apart in the source; their conditions may differ. Like-named read-outs stand apart in the source and are kept apart here.

Experiments:
BaCl2 = test: Antispasmodic activity, BaCl2
guinea pig atria's = test: Protective activity against anoxia (guinea pig atria); set-up: key: scale: + = 10 to 20% increase in survival time; conditions: increase in survival time
Excerpt: (5) guinea pig atria's;
+ = increase in survival time of 10 to 20%

[1] = system: spontaneously hypertensive rat; test: Antihypertensive activity (spontaneously hypertensive rat); type: in vivo; conditions: 15 mg/kg per os
Protocol: (3) spontaneously hypertensive rat; 15 mg/kg per os;
± reduction of systolic pressure up to 10 mm of Hg
+ reduction of systolic pressure of 10 to 20 mm Hg
++ reduction of systolic pressure of at least 20 mm of Hg

Ac.chol. = test: Antispasmodic activity, Ac.chol.
DL50 mouse p.o. = conditions: in vivo, po, limits of reliability (p : 0.95) in brackets
Excerpt: (1) the limits of reliability (p : 0.95) are given in brackets.

Hist. = test: Antispasmodic activity, Hist.
[2] = system: catecholamines and methylxanthine induced lipolysis; test: Antilipolytic activity in vitro in rat epididymal fat; type: cell-based
[3] = system: peripheral and cerebral circulations; test: Blood flow in peripheral and cerebral circulations after i.v. or oral administration; type: in vivo; conditions: mice or dogs
lipoproteinlipases = test: Inhibitory effect on lipoproteinlipases; type: biochemical
[4] = system: platelets emboli triggered by ADP; test: Platelets emboli triggered by ADP in mice or rats; type: in vivo
Excerpt: Since platelet aggregation is considered to be of paramount importance in thrombus formation, this anti-platelet activity of 1-(4-isopropylthiophenyl)-2-n-octylaminopropanol (suloctidil) is likely to explain its anti-thrombotic properties.

[5] = system: occluding thrombosis of the femoral artery; test: Prevention of arterial thrombosis in dogs; type: in vivo, dog; conditions: for n dogs with occluding thrombosis: controls 10 of 16, * α = 0.05; for incidence of occluding thrombosis of the femoral artery (in words): suloctidil 5 times 5 mg/kg i.m., acetylsalicylic acid 5 times 100 mg/kg p.o.
Protocol: In animals, 1-(4-isopropylthiophenyl)-2-n-octylaminopropanol reduces thromboformation in arteries and veins.
Thrombosis was induced in the femoral
artery of anesthetized dogs by a 30 min perfusions, in a
catheterized area of the vessel, of a solution of pronase.
Drugs administrations were made at 24 h intervals, for 5 days
the last dosage being given 30 min before anesthesia.

[6] = system: peripheral vasodilatatory activity; test: Vasodilatory effect after intraarterial injection in dog; type: in vivo
Protocol: (1) intraarterial injection in dog (5 animals) 10, 20 and 30 μg/kg.
(2) maximum vasodilatory effect in mm of Hg.
(3) and (4) expressed in seconds.

cholesterol biosynthesis = test: Inhibition of cholesterol biosynthesis in vitro (rat liver); type: cell-based; conditions: for inhibition at 100 µM / inhibition at 10 µM: Rattus norvegicus, rat liver, mean; for inhibition at 100 µM: 10^-4 M; for inhibition at 10 µM: 10^-5 M; for inhibition of cholesterol biosynthesis (in words): in vitro
Excerpt: |Inhibition of cholesterol biosynthesis in vitro (rat liver). In- |hibitory effect of suloctidil and clofibrate on the incorpora- |tion of 1-^14 [NT] and 2-^14 C-mevalonate (MVA). |are mean values and range, expressed in % of inhibition. Unless |otherwise stated, n = 3.

[7] = system: thrombosis of the hepatic veins; test: Prevention of deep veins thrombosis in rats; type: in vivo, rat; conditions: for n rats with score 2: control 1; for n rats with score 3: control 2; for n rats with score 1: control 12, * α = 0.05; for n rats with score 0: control 13, ** α = 0.01; for thrombosis of the hepatic veins (in words): rats fed hyperlipidemic diet 3 months, endotoxin
Protocol: (see table VI given below).
Thrombosis in the hepatic veins were in-
duced in rats fed an hyperlipidemic diet for 3 months by i.v.
injection of endotoxin (lipopolysaccharide B from Salmonella
Sulcoctidil was administered into the diet. The importance of the
thrombosis assessed by scoring the subsequent red
hepatic infarcts according to their number and surface.

[8] = system: vascular contractile cell; test: Vascular antispasmodic activity: inhibition of induced vasoconstrictions in vitro and in vivo
platelet functions = test: Platelet antiaggregating properties in vitro and in vivo
[9] = system: experimental type II hyperlipidemia; test: Experimental type II hyperlipidemia in monkeys; type: in vivo, monkey
[10] = system: ADP, L-epinephrine, collagen and Thrombofax induced aggregation; test: Ex-vivo platelet aggregation after oral administration to healthy volunteers; set-up: species or system human
Protocol: (§1) After a single oral intake of 200 mg the effect lasts for at least 6 h. Repeated administration of 1-(4-isopropylthiophenyl)-2-n-octylaminopropanol seems to optimalize its anti-platelet activity. […] Moreover, investigations on its mode of action indicate that the mechanism involved are quantitatively and qualitatively different from these of the other known anti-platelet agents.

[11] = Blood viscosity and plasma fibrinogen in geriatric patients (pilot studies); type: in vivo, human; conditions: long-term treatment
[12] = Prothrombine levels in patients under oral anti-coagulants therapy; type: in vivo, human; conditions: 900 mg daily with long-term oral anti-coagulants
Protocol: as §1

[13] = system: vasoconstrictions induced by norepinephrine and angiotensine in the femoral circulation; test: Inhibition of vasoconstrictions in the femoral circulation of dogs; set-up: species or system dog; conditions: in vivo, FIG. 1: i.a. 10 μg/kg/min, listed as suloctidil
Excerpt: The vasoconstrictions are induced by i.a. norepinephrine (n=10) or angiotensine (n=8) during solvent (C) or drug (T) infusion.
Vertical bars are standard errors of the means and * or *** indicate statistically significant differences from the corresponding control values at the thresholds α=0.05 and 0.001 respectively.

Bleeding time in man = type: in vivo, human; conditions: repeated administration
Protocol: as §1

[14] = AA, read-out: Inhibition of incorporation of 1-^14 C-acetate (AA)
[15] = MVA, read-out: Inhibition of incorporation of 2-^14 C-mevalonate (MVA)

CCCCCCCCNC(C)C(O)c1ccc(SCC)cc1 (stereo not shown) [No 13]
Antispasmodic activity CE 100, BaCl2 (BaCl2): 100 μ g γ 60 ml
Protective activity against anoxia (guinea pig atria's): 0
Anti-hypertensive activity [1]: ++ (reduction of systolic pressure of at least 20 mm of Hg)
Antispasmodic activity CE 100, Ac.chol. (Ac.chol.): 200 μ g γ 60 ml
LD50 (DL50 mouse p.o.): 1750 mg/kg
Antispasmodic activity CE 100, Hist. (Hist.): 100 μ g γ 60 ml

CCCCCCCCNC(CC)C(O)c1ccc(SC)cc1 (stereo not shown) [No 18]
Antispasmodic activity CE 100, BaCl2 (BaCl2): 500 μ g γ 60 ml
Protective activity against anoxia (guinea pig atria's): 0
Anti-hypertensive activity [1]: 0
Antispasmodic activity CE 100, Ac.chol. (Ac.chol.): 200 μ g γ 60 ml
LD50 (DL50 mouse p.o.): ~3500 mg/kg
Antispasmodic activity CE 100, Hist. (Hist.): 200 μ g γ 60 ml

CCCCNC(C)C(O)c1ccc(SC)cc1 (stereo not shown) [No 10]
Antispasmodic activity CE 100, BaCl2 (BaCl2): 1000 μ g γ 60 ml
Protective activity against anoxia (guinea pig atria's): + (increase in survival time of 10 to 20%)
Anti-hypertensive activity [1]: 0
Antispasmodic activity CE 100, Ac.chol. (Ac.chol.): 500 μ g γ 60 ml
LD50 (DL50 mouse p.o.): ~100 mg/kg
Antispasmodic activity CE 100, Hist. (Hist.): 1000 μ g γ 60 ml

CCCCCCCCNC(CC)C(O)c1ccc(SCC)cc1 (stereo not shown) [No 20]
Antispasmodic activity CE 100, BaCl2 (BaCl2): 100 μ g γ 60 ml
Protective activity against anoxia (guinea pig atria's): 0
Anti-hypertensive activity [1]: 0
Antispasmodic activity CE 100, Ac.chol. (Ac.chol.): 100 μ g γ 60 ml
LD50 (DL50 mouse p.o.): ~2450 mg/kg
Antispasmodic activity CE 100, Hist. (Hist.): 200 μ g γ 60 ml

CCCCCCCCNC(C)C(O)c1ccc(SC(C)C)cc1 (stereo not shown) [No 2, 1-(4-isopropylthiophenyl)-2-n-octylaminopropanol]
Antispasmodic activity CE 100, BaCl2 (BaCl2): 100 μ g γ 60 ml
antilipolytic activity [2]: potent antilipolytic activity
increase in blood flow in peripheral and cerebral circulations [3]: increase in blood flow in both peripheral and cerebral circulations
direct inhibitory effect on lipoproteinlipases (lipoproteinlipases): direct inhibitory effect on the activity of different lipoproteinlipases
activity compared with acetyl salicyclic acid ([4]; at the same dose): as active as acetyl salicyclic acid
formation of platelets emboli triggered by ADP ([4]; oral, mice or rats): blocked or decreased the formation of platelets emboli triggered by ADP
n dogs with occluding thrombosis ([5]; 5 × 5 mg/kg i.m., n = 16): 3
incidence of occluding thrombosis of the femoral artery (in words) [5]: significantly lower
peripheral vasodilatatory activity compared with papaverine [6]: greater degree of activity than papaverine
Amplitude (maximum vasodilatory effect) ([6]; 10 μg/kg): 42 mm of Hg
Duration of effect ([6]; 10 μg/kg): 226 s
Half-life (of vasodilatory effect) ([6]; 10 μg/kg): 1.57 min
Amplitude (maximum vasodilatory effect) ([6]; 20 μg/kg): 59 mm of Hg
Duration of effect ([6]; 20 μg/kg): 299 s
Half-life (of vasodilatory effect) ([6]; 20 μg/kg): 2.32 min
Amplitude (maximum vasodilatory effect) ([6]; 30 μg/kg): 67 mm of Hg
Duration of effect ([6]; 30 μg/kg): 390 s
Half-life (of vasodilatory effect) ([6]; 30 μg/kg): 2.63 min
Protective activity against anoxia (guinea pig atria's): 0
Anti-hypertensive activity [1]: 0
inhibition at 100 µM (cholesterol biosynthesis; [14]): 49.4%
inhibition at 10 µM (cholesterol biosynthesis; [14]): 27.5%
inhibition at 100 µM (cholesterol biosynthesis; [15]): 25.9%
inhibition at 10 µM (cholesterol biosynthesis; [15]): 9.9%
inhibition of cholesterol biosynthesis (in words) (cholesterol biosynthesis): strong inhibitor of cholesterol biosynthesis; also recorded: more specific than that of standard compounds like clofibrate
inhibition of cholesterol biosynthesis (in words) (cholesterol biosynthesis; listed as suloctidil): markedly inhibits the biosynthesis of cholesterol
n rats with score 2 ([7]; 10 mg/kg/day in diet): 0
n rats with score 3 ([7]; 10 mg/kg/day in diet): 0
n rats with score 1 ([7]; 10 mg/kg/day in diet): 4
n rats with score 0 ([7]; 10 mg/kg/day in diet): 25
n rats with score 2 ([7]; 25 mg/kg/day in diet): 0
n rats with score 3 ([7]; 25 mg/kg/day in diet): 0
n rats with score 1 ([7]; 25 mg/kg/day in diet): 5
n rats with score 0 ([7]; 25 mg/kg/day in diet): 23
thrombosis of the hepatic veins (in words) [7]: protection is still conferred by a 10 mg/kg oral dose
thrombosis of the hepatic veins (in words) ([7]; listed as suloctidil): markedly less frequent and less developped
vascular antispasmodic activity and vasodilating action [8]: potent vascular antispasmodic activity and vasodilating action
inhibition of vasoconstrictions ([8]; in vitro and in vivo, calcium, norepinephrine, 5-hydroxytryptamine and angiotensine): inhibits, in vitro and in vivo, vasocontrictions induced by various agents like calcium, norepinephrine, 5-hydroxytryptamine and angiotensine
platelet antiaggregating properties (platelet functions): potent platelet antiaggregating properties
platelet antiaggregating properties (platelet functions; listed as suloctidil): platelet anti-aggregating properties
Antispasmodic activity CE 100, Ac.chol. (Ac.chol.): 100 μ g γ 60 ml
hypocholesterolemic and normolipoproteinemic effects [9]: hypocholesterolemic and "normolipoproteinemic" effects observed in vivo
LD50 (DL50 mouse p.o.): 3700 mg/kg
inhibition of induced platelet aggregation ([10]; ex-vivo, single oral administration, 200 mg or more, healthy volunteers): strongly inhibits ADP, L-epinephrine, collagen and Thrombofax induced aggregation
duration of anti-aggregating effect ([10]; single oral intake of 200 mg): at least 6 h
Antispasmodic activity CE 100, Hist. (Hist.): 100 μ g γ 60 ml
plasma fibrinogen levels [11]: parallel reduction of the plasma fibrinogen levels
reduction of blood hyperviscosity ([11]; therapeutic dosage regimen): about 10%
prothrombine levels [12]: does not markedly decrease prothrombine levels
inhibition of vasoconstrictions in the femoral circulation [13]: potent inhibitor of vasoconstrictions; also recorded: more active than standard agents like papaverine and cinnarizine
bleeding time (Bleeding time in man): does not prolong bleeding time in man

CCCCNC(CC)C(O)c1ccc(SC)cc1 (stereo not shown) [No 17]
Antispasmodic activity CE 100, BaCl2 (BaCl2): 1000 μ g γ 60 ml
Protective activity against anoxia (guinea pig atria's): 0
Anti-hypertensive activity [1]: + (reduction of systolic pressure of 10 to 20 mm Hg)
Antispasmodic activity CE 100, Ac.chol. (Ac.chol.): 1000 μ g γ 60 ml
LD50 (DL50 mouse p.o.): 122 mg/kg
Antispasmodic activity CE 100, Hist. (Hist.): 1000 μ g γ 60 ml

CC(=O)Oc1ccccc1C(=O)O [Acetylsalicylic acid, reference compound]
n dogs with occluding thrombosis ([5]; 5 × 100 mg/kg p.o., n = 10): 1
incidence of occluding thrombosis of the femoral artery (in words) [5]: also effective in these conditions

CCOC(=O)C(C)(C)Oc1ccc(Cl)cc1 [Clofibrate, reference compound]
inhibition at 100 µM (cholesterol biosynthesis; [14]): 47.4%
inhibition at 10 µM (cholesterol biosynthesis; [14]): 4.2%
